Data as given in patent US10780092B2, “Fused pyrazine derivatives useful as soluble guanylate cyclase stimulators” (Merck Sharp & Dohme Corp., priority 2016, dated 2020).

Tests used:
[1] = molecular target: human recombinant sGC enzyme (Homo sapiens (Human), UniProt Q02108+Q02153); test: SEC competition binding assay with [3H] Compound B radioligand; settings: displacement of 1.6 nM [3H] Compound B, 24 h at 37° C.
Method: The binding potencies of sGC compounds to the human recombinant sGC enzyme were determined in a Size Exclusion Chromatography (SEC) competition binding assay using [^3H] Compound B as the radioligand. [^3H] Compound B was prepared using a standardardized tritium exchange procedure. The parent (non-labeled) molecule was first iodinated then a Pd-catalyzed iodine to tritium exchange provided the labeled compound.
Method: The binding buffer was composed of 50 mM triethanolamine pH 7.4, 3 mM MgCl2, 0.025% BSA, 2 mM dithiothreitol (DTT), 300 μM DETA/NO and 400 μM GTP. Assays were conducted in 96-well plates in a total volume of 200 μL. Recombinant human sGC protein (40 ng) was incubated with 1.6 nM [^3H] Compound B for 24 h at 37° C. in the presence and absence of various concentrations of sGC testing compounds delivered as DMSO solutions to give a total of 1% organic solvent content. Non-specific binding was defined by competition with 1 μM of Compound B. After the incubation period, the binding mixtures were loaded onto the gel-filtration plate (ThermoFischer Cat. No. 89808) pre-equilibrated with binding buffer and spun at 1000×g for 3 min at 4° C. on a Bench top centrifuge. The collected eluates in White Frame Clear Well Isoplates (Perkin Elmer Cat #6005040) received 100 μl of UltimaGold scintillation cocktail. The sealed plates were shaken vigorously and span, and counted after 6 hs with a Wallac Microbeta TriLux 1450 LSC & Luminescence Counter (Perkin Elmer). Data from competition experiments were analyzed to determine Ki values using one site—fit Ki equation.

sGC α1/β1 heterodimer = sGC α1/β1 heterodimer (Homo sapiens (Human), UniProt Q02108+Q02153); test: Cell-based sGC functional assay (CASA assay), cGMP by HTRF; settings: CHO-K1/sGC cells; for Emax: CHO-K1, cGMP production as percentage of maximum of compound A (set to 100%), read-out: % Activation; for EC50: inflection point of cGMP production, 4P fit, read-out: IP
Text: Cell-Based sGC Functional Assay (Cyclic GMP Assay for sGC Activator: CASA Assay)
Soluble guanylate cyclase (sGC) is a heme-containing enzyme that converts GTP to secondary messenger cGMP. Increases in cGMP levels affect several physiological processes including vasorelaxation through multiple downstream pathways. […] Heme-dependent activators (HDAs) preferentially target sGC containing a ferrous heme group. To determine the effect of sGC activators on enzyme activity, the CASA assay was developed to monitor the generation of cGMP in a cell line that stably expresses the heterodimeric sGC protein.
A CHO-K1 cell line stably expressing the sGC α1/β1 heterodimer was generated using a standard transfection protocol. The cDNA's encoding human sGC α1 and β1 were cloned in pIRES hyg and pIRES neo respectively using standard molecular biology techniques. The plasmids pIRES hyg and pIRES neo plasmids were obtained from Clontech. CHO-K1 cells were transfected with plasmids pIREShyg-hsGCα1 and pIRESneo-hsGCβ1 simultaneously using FUGENE reagent. Clones that stably express both subunits were selected with hygromycin and neomycin for ˜2 weeks. The clone chosen for the assay was designated CHO-K1/sGC. CHO-K1/sGC cells were maintained in F-K12 medium containing 10% heat-inactivated Fetal Bovine Serum (FBS), 100 μg/mL penicillin/streptomycin, 0.5 mg/mL hygromycin and 0.25 mg/mL G418. The cells were then cryopreserved in liquid nitrogen. On the day of the assay, the cells were thawed and resuspended in EBSS Assay Buffer (Sigma, E3024) supplemented with 5 mM MgCl2, 10 mM HEPES (4-(2-hydroxyethyl)piperazine-1-ethanesulfonic acid) and 0.05% BSA (bovine serum albumin) and cell density was then adjusted to 2.25×10^5/mL with EAB. IBMX (3-isobutyl-1-methylxanthin, 0.5 mM) was added to inhibit degradation of cGMP. Compounds were diluted from DMSO stock solutions and added to the assay at a final DMSO concentration of 2.5%. Cells were pre-incubated in the presence and absence of 1 μM of Diethylenetriamine/nitric oxide adduct (DETA-NO; Sigma, 17018) for 30 min at 25° C. Compounds were subsequently added and incubated for 1 hr at 37° C. At the end of the incubation period, the reaction was terminated and the cells were lysed with the detection reagents from Cisbio Kits. The level of intracellular cGMP was determined using an HTRF-based assay kit (CisBio, 62GM2PEC), which detects the displacement of a fluorescence labeled cGMP from its specific antibody. The cGMP produced by test compounds was directly compared to the maximum cGMP production (this value was set to equal 100% activation) of the published sGC compound A (Example 1 in WO 2010/065275, published Jun. 10, 2010).
The test compounds' activities were then expressed as a percentage of compound A, the standard in every experiment. This percent activation was calculated either in the presence or absence of DETA-NO which was then plotted. Inflection points (IP) and maximum fold induction was derived using Abase analysis software for 4P fit.

| SMILES | Ki [1] | Emax (sGC α1/β1 heterodimer) | EC50 (sGC α1/β1 heterodimer) |
| --- | --- | --- | --- |
| CC1(c2cc(O)c(C(F)(F)F)cn2)C(=O)Nc2nc(-c3cn4ccnc4c(CC4CCCCC4)n3)nc(N)c21 (stereo not drawn) [Example 147-B, 4-amino-2-{8-(cyclohexylmethyl)-imidazo[1,2-a]pyrazin-6-yl}-5-(4-hydroxy-5-(trifluoromethyl)pyridin-2-yl)-5-methyl-5,7-dihydro-6H-pyrrolo-[2,3-d]pyrimidin-6-one] | 0.905 nM | 102% | 1200 nM |
| CC1(c2ccc(Cl)c(O)c2)C(=O)Nc2nc(-c3cn4ncnc4c(CCC(F)(F)C(F)(F)F)n3)nc(N3CCC(C(F)(F)F)CC3)c21 (stereo not drawn) [Example 137-A, 5-(4-Chloro-3-hydroxy-phenyl)-5-methyl-2-(8-(3,3,4,4,4-pentafluoro-butyl)-[1,2,4]triazolo-[1,5-a]pyrazin-6-yl)-4-(4-(trifluoromethyl)-piperidin-1-yl)-5,7-dihydro-6H-pyrrolo-[2,3-d]pyrimidin-6-one] | 2.63 nM | 99% | 744 nM |
| CC1(c2ccc(O)c(Cl)c2)C(=O)Nc2nc(-c3cn4ccnc4c(Cc4ccc(F)cc4)n3)nc(N)c21 (stereo not drawn) [Example 60-B, 4-Amino-5-(3-chloro-4-hydroxyphenyl)-2-{8-[(4-fluorophenyl)methyl]imidazo[1,2-a]pyrazin-6-yl]-5-methyl-5,7-dihydro-6H-pyrrolo[2,3-d]pyrimidin-6-one] | 1.92 nM | 138% | 4380 nM |
| CC1(c2ccc(Cl)c(O)n2)C(=O)Nc2nc(-c3cn4ccnc4c(CC4CCCCC4)n3)nc(N)c21 (stereo not drawn) [Example 49-A, 4-Amino-5-(5-chloro-6-hydroxypyridin-2-yl)-2-(8-(cyclohexylmethyl)imidazo[1,2-a]pyrazin-6-yl)-5-methyl-5,7-dihydro-6H-pyrrolo[2,3-d]pyrimidin-6-one] | 0.746 nM | 111% | 363 nM |
| CC1(c2ccc(O)c(F)c2)C(=O)Nc2nc(-c3cn4ccnc4c(CCC4CCCCC4)n3)nc(N)c21 (stereo not drawn) [Example 84-B, 4-Amino-2-(8-(2-cyclohexylethyl)imidazo[1,2-a]pyrazin-6-yl)-5-(3-fluoro-4-hydroxyphenyl)-5-methyl-5,7-dihydro-6H-pyrrolo[2,3-d]pyrimidin-6-one] | 3.46 nM | 121% | 313 nM |
| CC1(c2cc(Cl)c(O)c(Cl)c2)C(=O)Nc2nc(-c3cn4ncnc4c(CC4CCCCC4)n3)nc(N)c21 (stereo not drawn) [Example 112-B, 4-Amino-2-(8-(cyclo-hexylmethyl)-[1,2,4]-triazolo[1,5-a]pyrazin-6-yl)-5-(3,5-dichloro-4-hydroxyphenyl)-5-methyl-5,7-dihydro-6H-pyrrolo[2,3-d]pyrimidin-6-one] | 1.78 nM | 112% | 16 nM |

The next compounds have a lower Ki [1] than those just listed; values first:

| Ki [1] | Emax (sGC α1/β1 heterodimer) | EC50 (sGC α1/β1 heterodimer) | SMILES |
| --- | --- | --- | --- |
| 0.378 nM | 96% | 2350 nM | CC1(c2cc(O)c(C(F)(F)F)cn2)C(=O)Nc2nc(-c3cn4ccnc4c(Cc4ccccc4F)n3)nc(N)c21 (stereo not drawn) [Example 146-B, 4-amino-2-(8-{2-fluorobenzyl}imidazo-[1,2-a]pyrazin-6-yl)-5-(4-hydroxy-5-(trifluoromethyl)-pyridin-2-yl)-5-methyl-5,7-dihydro-6H-pyrrolo-[2,3-d]pyrimidin-6-one] |
| 0.158 nM | 107% | 771 nM | CC1(c2cc(O)c(C#N)c(F)c2)C(=O)Nc2nc(-c3cn4ncnc4c(CC4CCCCC4)n3)nc(N)c21 (stereo not drawn) [Example 15-B, 4-(4-Amino-2-(8-(cyclohexylmethyl)-[1,2,4]triazolo[1,5-a]pyrazin-6-yl)-5-methyl-6-oxo-6,7-dihydro-5H-pyrrolo[2,3-d]pyrimidin-5-yl)-2-fluoro-6-hydroxybenzonitrile] |
| 0.091 nM | 113% | 188 nM | CC1(c2cc(O)c(Cl)c(F)c2)C(=O)Nc2nc(-c3cn4ccnc4c(Cc4cccc(F)c4)n3)nc(N)c21 (stereo not drawn) [Example 5-B, 4-Amino-5-(4-chloro-3-fluoro-5-hydroxyphenyl)-2-{8-[(3-fluorophenyl)methyl]imidazo[1,2-a]pyrazin-6-yl}-5-methyl-5,7-dihydro-6H-pyrrolo[2,3-d]pyrimidin-6-one] |
